The text below walks through data of patent US8110565B2, “Enhanced drug delivery in transdermal systems” (Noven Pharmaceuticals, Inc., priority 2001, dated 2012).

Each structure is given as a SMILES string.

Series [1] can be described thus: Amount of ramipril solubilized in the carrier formulation without forming crystals. Type of series: physicochemical. From the text: (§1) Prodrug effects on flux were also studied using an ace inhibitor drug, ramipril. Flux rates of two corresponding prodrugs—ramipril methyl ester and ramipril ethyl ester—were compared prior to combining with the parent drug. […] In either event, the use of an ester prodrug in place of the parent drug can achieve, at the very least, over a 10 fold increase in flux (see ramipril flux (▴) in FIG. 8—only 15% ramipril could be solubilized without forming crystals—versus ramipril ethyl ester flux without enhancers (Δ) in FIG. 9). Use of non-functional or hydroxy functional adhesives are also preferred.

A short description of series [2]: Flux of ramipril, its ester prodrugs and their combinations from carrier formulations (FIGS. 8, 9). It is filed as in vitro ADME.
Excerpt: as §1, with “preferred. However, when both ramipril and a corresponding prodrug are combined in the formulations containing enhancers, an even higher flux can be obtained.” for “preferred.”

For the compound `CCOC(=O)[C@H](CCc1ccccc1)N[C@@H](C)C(=O)N1[C@H](C(=O)O)C[C@@H]2CCC[C@@H]21` [ramipril], the “ramipril that could be solubilized without forming crystals” value in series [1] is given as 15%.
As to `CCOC(=O)C(CCc1ccccc1)NC(C)C(=O)N1C(C(=O)OCC)CC2CCCC21` (stereo not shown) [ramipril ethyl ester], the “increase in flux over the parent drug ramipril” value in series [2] (ester without enhancers (FIG. 9) versus 15% ramipril (FIG. 8)) is reported as over 10 fold.
For `CCOC(=O)[C@H](CCc1ccccc1)N[C@@H](C)C(=O)N1[C@H](C(=O)OC)C[C@@H]2CCC[C@@H]21` [ramipril methyl ester], the “flux compared with the ethyl ester derivative” value in series [2] was “fluxed higher”. Also, the “flux higher than the ethyl ester prodrug” value in series [2] (without permeation enhancers, 20% drug, 20% polyacrylate adhesive, 60% polysiloxane adhesive, FIG. 9) is 73%.
